Data reported in patent US10238657B2, “Heterocyclic compounds for treating psoriasis” (JS INNOPHARM (SHANGHAI LTD.), priority 2015, dated 2019).

Legend:
[1] = test system: HaCaT cells; experiment: Morphological examination of the effect on HaCaT cell differentiation; type: cell-based, human; conditions: 48 h incubation, immunohistochemical staining
Protocol: HaCaT cells were cultured in DMEM culture medium containing 10% FBS under 37° C. and 5% CO2 concentration. When reaching 80% of the culture bottle area and after digestion by 0.25% trypsin, the cells were adjusted to a concentration of 4×10^4/ml and moved to a 6-well plate respectively (containing sterilized slide). Compound solutions were added. The cells were applied to the corresponding wells, and a blank control group (saline) was set. Both the sample groups and the control group were placed in a cell incubator at 37° C. Immumohistochemical staining was conducted after incubation at 48 h.
The imagine in FIG. 1A is dark brown, indicating large amount of keratin is present. […] Compound No. 5 underwent cornification (positive result).

[2] = test system: mouse vaginal epidermal cells; experiment: Effect on mitosis of mouse vaginal epidermal cells; type: in vivo; conditions: cream 5% w/w, 25 μl intravaginal once daily, 3 days, estradiol-treated mice, n = 6
Protocol: Except for the saline control group, sexually mature female mice were injected with estradiol subcutaneously at a dosage of 35 mg/kg for 3 successive days. On the fourth day, in-estrus mice were selected with vaginal smear. The mice were randomly divided into several groups: (a) saline control group, saline was used in each administration; (b) blank cream group, blank cream was used in each administration; (c) calcipotriol control group, calcipotriol in cream (5% w/w) was used in each administration; (d) four testing groups, Compound No 5 in cream at concentration of 0.5%, 1%, 2%, and 4% (w/w), respectively, was used in each application. 25 μl corresponding treatment was injected into the vagina of the mice once daily for 3 successive days. Colchicine (15 mg/Kg) was intraperitoneally injected 2 hours after the last dosing. The mice were sacrificed 6 hours after the injection of colchicine. The vaginal tissue was taken out for pathological examination. The number of mitosis in one hundred basal cells was counted, which was named as the mitotic index.

[3] = test system: guinea pig ear epidermis; experiment: Propranolole hydrochloride-induced psoriasis in guinea pig model; type: in vivo; conditions: cream 5% w/w, 200 μl on both ears twice daily, 7 days
Protocol: Except for those in Saline control group, guinea pigs were treated with propranolole hydrochloride cream (5% w/w, 200 μl) uniformly applied on the back of both ears twice daily for four successive weeks. After four weeks, the […] were divided into several groups, namely, blank cream group, calcipotriol group, and four testing cream groups with Compound 5 at concentration of 0.5%, 1%, 2%, and 4% (w/w)), respectively. The guinea pigs in Saline control group were treated with saline on the back of both ears; the guinea pigs in other groups were treated with corresponding cream on the back of both ears (200 μl) twice daily for 7 successive days. The guinea pigs were examined during the experiment period and sacrificed 1 hour after the last dosing.

[4] = test system: mouse tail epidermis; experiment: Effect on mouse tail epidermis (granular layer of tail scales); type: in vivo; conditions: cream 5% (w/w), 100 μl once daily, 7 days, female mice, n = 10
Protocol: 70 female mice were randomly divided into several groups: (a) saline control group, saline was used in each administration; (b) blank cream group, blank cream was used in each administration; (c) calcipotriol control group, calcipotriol in cream (5% w/w) was used in each administration; (d) four testing groups, Compound No 5 in cream at 0.5%, 1%, 2%, and 4% (w/w), respectively, was used in each administration. 100 μl of corresponding treatment was applied to the same position on the tail of the mice once daily for seven successive days. The mice were sacrificed 1 hour after the last application. The treated skin parts were taken for pathological examination, and the tail scales of each mouse was assessed under a microscope. The number of scales having a granular layer in every 100 scales was counted, and the result was expressed as percentage.

[5] = test system: chick chorioallantoic membrane; experiment: Chick chorioallantoic membrane (CAM) angiogenesis model; type: in vivo, chicken; conditions: 4.0 μg/egg, 48 h
Protocol: Fresh eggs were incubated for 6 successive days under 37° C. and 50% humidity. On the 6th day, live eggs were identified and taken out for window-opening. First, the chorioallantoic membrane was located with illumination. Droplets of Compound No. […] After air dry, the filter paper was placed on the chorioallantoic membrane gently without contacting big vessels. The window was sealed with a transparent adhesive tape. The eggs were incubated for 48 hours continuously. The transparent adhesive tape was then uncovered. The window was enlarged and photos were taken under a dissecting microscope (FIGS. 2 A-B). New vessels were counted based on the number of blood vessel branch points in each photo. Inhibitory rate=100−[(number of new blood vessels in treatment group at 24 h)/(number of new blood vessels in treatment group at 0 h)]/[(number of blood vessels in negative control group at 24 h)/(number of blood vessels in negative control group at 0 h)]×100%.

[6] = test system: HaCaT cells; experiment: In-vitro screening with MTT method, inhibition of proliferation of HaCaT cells; type: cell-based, human; conditions: about 48 hours incubation
Protocol: Compound No. 5 was dissolved in DMSO, and gradiently diluted with PBS to prepare solutions at concentration of 1000 μg/ml, 100 μg/ml, 10 μg/ml, 1 μg/ml, 0.1 μg/ml, and 0.01 μg/ml, respectively. Cis-platinum (CDDP) was used as positive control, and sample solutions were prepared with the same method. The sample solutions were added into a 96-well plate placed with the growth phase human immortalized keratinocyte (HaCaT) cells (Pharmacology Laboratory of Shanghai Institute of Pharmaceutical Industry), and were incubated for about 48 hours. The cell relative survival rate was determined by the MTT method, and calculated according to the following formula based on the light absorption value at […]. Cell relative survival rate=(Light absorption value of sample treatment group—background light absorption value)/(Light absorption value of DMSO treatment group—background light absorption value).

SMILES	Test Results, effect on HaCat cell differentiation [1]	other results
Cc1cnc(Nc2ccc(F)cc2Cl)nc1-c1cc2n(c1)CCN([C@H](CO)c1ccc(Cl)cc1)C2=O [Compound 8, (S)-7-(2-((2-chloro-4-fluorophenyl)amino)-5-methylpyrimidin-4-yl)-2-(1-(4-chlorophenyl)-2-hydroxyethyl)-3,4-dihydropyrrolo[1,2-a]pyrazin-1(2H)-one]	Positive	–
Cc1cnc(Nc2ccc(C3CCNCC3)cc2Cl)nc1-c1cc2n(c1)CCN([C@H](CO)c1cccc(Cl)c1)C2=O [Compound 12, (S)-7-(2-((2-chloro-4-(piperidin-4-yl)phenyl)amino)-5-methylpyrimidin-4-yl)-2-(1-(3-chlorophenyl)-2-hydroxyethyl)-3,4-dihydropyrrolo[1,2-a]pyrazin-1(2H)-one]	Positive	–
Cc1cnc(Nc2ccc(N3CCNCC3)cc2Cl)nc1-c1cc2n(c1)CCN([C@H](CO)c1cccc(Cl)c1)C2=O [Compound 11, (S)-7-(2-((2-chloro-4-(piperazin-1-yl)phenyl)amino)-5-methylpyrimidin-4-yl)-2-(1-(3-chlorophenyl)-2-hydroxyethyl)-3,4-dihydropyrrolo[1,2-a]pyrazin-1(2H)-one]	Positive	–
Cc1cnc(Nc2ccc(F)cc2Cl)nc1-c1cc2n(c1)CCCN([C@H](CO)c1cccc(Cl)c1)C2=O [Compound 7, (S)-8-(2-((2-chloro-4-fluorophenyl)amino)-5-methylpyrimidin-4-yl)-2-(1-(3-chlorophenyl)-2-hydroxyethyl)-2,3,4,5-tetrahydro-1H-pyrrolo[1,2-a][1,4]diazepin-1-one]	Positive	–
Cc1cnc(Nc2ccc(F)cc2)nc1-c1cc2n(c1)CCN([C@H](CO)c1cccc(Cl)c1)C2=O [Compound 17, (S)-2-(1-(3-chlorophenyl)-2-hydroxyethyl)-7-(2-((4-fluorophenyl)amino)-5-methylpyrimidin-4-yl)-3,4-dihydropyrrolo[1,2-a]pyrazin-1(2H)-one]	Positive	–
Cc1cnc(Nc2ccc(F)cc2Cl)nc1-c1cc2n(c1)CCN([C@H](C)c1cccc(Cl)c1)C2=O [Compound 6, (R)-7-(2-((2-chloro-4-fluorophenyl)amino)-5-methylpyrimidin-4-yl)-2-(1-(3-chlorophenyl)ethyl)-3,4-dihydropyrrolo[1,2-a]pyrazin-1(2H)-one]	Positive	–
C=C1/C(=C\C=C2/CCC[C@]3(C)[C@@H]([C@H](C)/C=C/[C@@H](O)C4CC4)CC[C@@H]23)C[C@@H](O)C[C@@H]1O [Calcipotriol, calcipotriol, reference compound]	–	Mitotic cell number/total cell number (%) [2]: 15.33 ± 1.21 %; Epidermal thickness (μm) [3]: 158.72 ± 2.93 μm; Scales quantity in granular layer * 100% [4]: 50.50 ± 4.95 %
Cc1cnc(Nc2ccc(F)cc2Cl)nc1-c1cc2n(c1)CCN([C@H](CO)c1cccc(F)c1)C2=O [Compound 9, (S)-7-(2-((2-chloro-4-fluorophenyl)amino)-5-methylpyrimidin-4-yl)-2-(1-(3-fluorophenyl)-2-hydroxyethyl)-3,4-dihydropyrrolo[1,2-a]pyrazin-1(2H)-one]	Positive	–
CNC(=O)c1cc(Oc2ccc(NC(=O)Nc3ccc(Cl)c(C(F)(F)F)c3)cc2)ccn1 [Sorafeni, Sorafenib, reference compound]	–	Number of new blood vessels 48 h ([5]; n = 3): 18.17 ± 7.60; Inhibitory rate (%) ([5]; versus PBS group): 77.27%
N.N.[Cl][Pt][Cl] [CDDP, Cis-platinum, reference compound]	–	HaCaT Cells IC50 [6]: 1.41 µg/mL
Cc1cnc(NC2CCOCC2)nc1-c1cc2n(c1)CCN(C(c1ccc(Cl)c(F)c1)c1cnn(C)c1)C2=O (centres unmarked) [Compound 19, 2-((4-chloro-3-fluorophenyl)(1-methyl-1H-pyrazol-4-yl)methyl)-7-(5-methyl-2-((tetrahydro-2H-pyran-4-yl)amino)pyrimidin-4-yl)-3,4-dihydropyrrolo[1,2-a]pyrazin-1(2H)-one]	Positive	–
Cc1cnc(NC2CCCCC2)nc1-c1cc2n(c1)CCN([C@H](CO)c1cccc(Cl)c1)C2=O [Compound 20, (S)-2-(1-(3-chlorophenyl)-2-hydroxyethyl)-7-(2-(cyclohexylamino)-5-methylpyrimidin-4-yl)-3,4-dihydropyrrolo[1,2-a]pyrazin-1(2H)-one]	Positive	–
C[C@H](c1cccc(Cl)c1)N1CCn2cc(-c3c[nH]c4ncc(-c5ccccc5)cc34)cc2C1=O [Compound 2, (R)-2-(1-(3-chlorophenyl)ethyl)-7-(5-phenyl-1H-pyrrolo[2,3-b]pyridin-3-yl)-3,4-dihydropyrrolo[1,2-a]pyrazin-1(2H)-one]	Positive	–
Cc1cnc(Nc2ccc(C3CCN(C(C)C)CC3)cc2Cl)nc1-c1cc2n(c1)CCN([C@H](CO)c1cccc(Cl)c1)C2=O [Compound 13, (S)-7-(2-((2-chloro-4-(1-isopropylpiperidin-4-yl)phenyl)amino)-5-methylpyrimidin-4-yl)-2-(1-(3-chlorophenyl)-2-hydroxyethyl)-3,4-dihydropyrrolo[1,2-a]pyrazin-1(2H)-one]	Positive	–
Cc1cnc(Nc2ccc(N3CCN(S(C)(=O)=O)CC3)cc2Cl)nc1-c1cc2n(c1)CCN([C@H](CO)c1cccc(Cl)c1)C2=O [Compound 16, (S)-7-(2-((2-chloro-4-(4-(methylsulfonyl)piperazin-1-yl)phenyl)amino)-5-methylpyrimidin-4-yl)-2-(1-(3-chlorophenyl)-2-hydroxyethyl)-3,4-dihydropyrrolo[1,2-a]pyrazin-1(2H)-one]	Positive	–
C[C@H](c1cccc(Cl)c1)N1CCn2cc(-c3n[nH]c4ncc(-c5ccccc5)cc34)cc2C1=O [Compound 3, (R)-2-(1-(3-chlorophenyl)ethyl)-7-(5-phenyl-1H-pyrazolo[3,4-b]pyridin-3-yl)-3,4-dihydropyrrolo[1,2-a]pyrazin-1(2H)-one]	Positive	–
Cc1cnc(Nc2ccc(F)cc2Cl)nc1-c1cc2n(c1)CCN([C@H](CO)c1ccc(F)cc1)C2=O [Compound 10, (S)-7-(2-((2-chloro-4-fluorophenyl)amino)-5-methylpyrimidin-4-yl)-2-(1-(4-fluorophenyl)-2-hydroxyethyl)-3,4-dihydropyrrolo[1,2-a]pyrazin-1(2H)-one]	Positive	–
